Laboratory results published in patent US9624215B2, “Amine derivative or salt thereof” (TOYAMA CHEMICAL CO., LTD., priority 2012, dated 2017).

Tests used:
[1] = system: TPA-induced ear edema and acanthosis in Balb/c mice; experiment: Mouse TPA-induced ear-swelling model; format: in vivo; details: topical, 240 h, 1% w/v solution, 20 μL applied to ear once a day from day 0 to day 9, female Balb/c mice, read-out: Inhibition rate of change in ear thickness on day 10
How it was run: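 Female Balb/c mice, 7 weeks old; 20 ng/mL TPA in 5% DMSO/acetone applied to outer ear on days 0, 2, 4, 7, 9. Test compound at 1% w/v topically once daily days 0-9, vehicle control. Inhibition rate from day 10 minus day 0 ear-thickness change versus control.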

[2] = system: TNFα production in LPS-stimulated Raw264.7 cells; experiment: TNFα production inhibition test; format: cell-based; details: Mus musculus, test compound 1 μmol/L, LPS 1 μg/mL, 16 hours, ELISA, read-out: Inhibition rate of TNFα production
Procedure: 7×10^4 mouse macrophage-derived cell line Raw264.7 cells were suspended in 100 μL of RPMI1640 medium containing 10% fetal bovine serum, plated in a 96-well plate and incubated overnight. The culture supernatant was removed and the test compound diluted in RPMI1640 medium containing 1% fetal bovine serum (final concentration: 1 μmol/L) was added. One hour after the addition, LPS (B4:0111) (Sigma-Aldrich, L2630) was added to a final concentration of 1 μg/mL. 16 hours after the stimulation, the culture supernatant was collected and the amount of TNFα produced in the culture supernatant was determined using ELISA kit (R&D Systems, MTA00B).
The inhibition rate was calculated from the following formula. Inhibition rate (%)=100−(amount of TNFα produced in the presence of test compound/amount of TNFα produced in the absence of test compound)×100

[3] = system: normal human neonatal foreskin epidermal keratinocytes (NHEK-F); experiment: Cell proliferation inhibition test; format: cell-based; details: Keratinocyte, 72 h, NHEK-F cells, three days incubation, ATPlite or CellTiterGlo, read-out: IC50 (concentration of the compound at which the cell count is reduced by 50%)
How it was run: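 NHEK-F keratinocytes, 2×10^3 per well in Humedia-EG2, plated overnight, then exposed to compound for three days. Cell count by ATPlite or CellTiterGlo luminescence; inhibition = 100 − (treated/untreated count)×100, IC50 as 50% reduction concentration.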

Structure (SMILES) | inhibition in vivo at 1 % strength [1] | inhibition at 1 µM [2] | IC50 [3]
O=C(O)c1nc(C2CC2)cnc1Nc1ccc2c(ccn2Cc2ccccc2)c1 [Example 71, 3-((1-benzyl-1H-indol-5-yl)amino)-6-cyclopropylpyrazine-2-carboxylic acid] | ≥ 20% | ≥ 50% | ≤ 10 nM
O=C(O)c1cc(C2CC2)ccc1Nc1ccc2c(cnn2Cc2ccccc2)c1 [Example 29, 2-((1-benzyl-1H-indazol-5-yl)amino)-5-cyclopropylbenzoic acid] | ≥ 20% | ≥ 50% | ≤ 10 nM
O=C(O)c1cc(C2CC2)cnc1Nc1ccc2c(ccn2-c2ccccc2)c1 [Example 39, 5-cyclopropyl-2-((1-phenyl-1H-indol-5-yl)amino)nicotinic acid] | ≥ 20% | ≥ 50% | ≤ 10 nM
